Non-standard residues stand in square brackets, D forms with d. No end group written: not given here. *: point of attachment. Biotin = O=C1N[C@H]2[C@H](CS[C@H]2CCCCC(=O)*)N1; pT = C[C@@H](OP(=O)(O)O)[C@H](N)C(=O)O; pS = N[C@@H](COP(=O)(O)O)C(=O)O
T1: GST-FBP21 (a protein having WW domain) (Homo sapiens, UniProt O75554)
T1 construct: GST
T1 sequence (O75554 1-376): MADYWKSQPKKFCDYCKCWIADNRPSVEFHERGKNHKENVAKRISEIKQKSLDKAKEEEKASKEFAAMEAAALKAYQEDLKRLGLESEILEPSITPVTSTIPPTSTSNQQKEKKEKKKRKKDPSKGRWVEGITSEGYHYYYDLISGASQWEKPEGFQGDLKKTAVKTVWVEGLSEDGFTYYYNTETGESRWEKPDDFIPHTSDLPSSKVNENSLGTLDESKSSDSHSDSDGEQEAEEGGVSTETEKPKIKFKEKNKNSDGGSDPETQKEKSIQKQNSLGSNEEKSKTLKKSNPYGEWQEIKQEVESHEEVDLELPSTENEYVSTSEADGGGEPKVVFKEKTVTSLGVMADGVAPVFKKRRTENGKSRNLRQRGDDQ

T2: GST-FBP21 (a protein having WW domain)
T2 sequence (O75554 whole entry, species assumed, looked up): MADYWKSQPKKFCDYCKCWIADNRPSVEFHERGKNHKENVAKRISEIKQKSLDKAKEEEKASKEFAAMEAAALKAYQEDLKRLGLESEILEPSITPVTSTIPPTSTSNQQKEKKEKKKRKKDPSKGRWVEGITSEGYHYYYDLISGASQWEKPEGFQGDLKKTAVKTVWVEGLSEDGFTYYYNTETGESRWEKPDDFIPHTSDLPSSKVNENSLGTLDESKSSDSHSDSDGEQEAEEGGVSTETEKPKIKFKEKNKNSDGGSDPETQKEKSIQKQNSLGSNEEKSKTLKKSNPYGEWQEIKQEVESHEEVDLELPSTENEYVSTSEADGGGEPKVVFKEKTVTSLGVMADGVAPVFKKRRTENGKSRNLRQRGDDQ

B1: COXG biotinylated phosphopeptide (Biotin-…*EL-COOH) (peptide)
peptide: Biotin-SGSGVLIKRRS[pT]EL-OH
SMILES: CC[C@H](C)[C@H](NC(=O)[C@H](CC(C)C)NC(=O)[C@@H](NC(=O)CNC(=O)[C@H](CO)NC(=O)CNC(=O)[C@H](CO)NC(=O)CCCC[C@@H]1SC[C@@H]2NC(=O)N[C@@H]21)C(C)C)C(=O)N[C@@H](CCCCN)C(=O)N[C@@H](CCCNC(=N)N)C(=O)N[C@@H](CCCNC(=N)N)C(=O)N[C@@H](CO)C(=O)N[C@H](C(=O)N[C@@H](CCC(=O)O)C(=O)N[C@@H](CC(C)C)C(=O)O)[C@@H](C)OP(=O)(O)O
B2: Kir2.1* biotinylated phosphopeptide (Biotin-…*EI-COOH) (peptide)
peptide: Biotin-SGSGPRPLRRE[pS]EI-OH
SMILES: CC[C@H](C)[C@H](NC(=O)[C@H](CCC(=O)O)NC(=O)[C@H](COP(=O)(O)O)NC(=O)[C@H](CCC(=O)O)NC(=O)[C@H](CCCNC(=N)N)NC(=O)[C@H](CCCNC(=N)N)NC(=O)[C@H](CC(C)C)NC(=O)[C@@H]1CCCN1C(=O)[C@H](CCCNC(=N)N)NC(=O)[C@@H]1CCCN1C(=O)CNC(=O)[C@H](CO)NC(=O)CNC(=O)[C@H](CO)NC(=O)CCCC[C@@H]1SC[C@@H]2NC(=O)N[C@@H]21)C(=O)O
B3: COXD biotinylated peptide (Biotin-…-COOH) (peptide)
peptide: Biotin-SGSGVLIKRRSTEL-OH
SMILES: CC[C@H](C)[C@H](NC(=O)[C@H](CC(C)C)NC(=O)[C@@H](NC(=O)CNC(=O)[C@H](CO)NC(=O)CNC(=O)[C@H](CO)NC(=O)CCCC[C@@H]1SC[C@@H]2NC(=O)N[C@@H]21)C(C)C)C(=O)N[C@@H](CCCCN)C(=O)N[C@@H](CCCNC(=N)N)C(=O)N[C@@H](CCCNC(=N)N)C(=O)N[C@@H](CO)C(=O)N[C@H](C(=O)N[C@@H](CCC(=O)O)C(=O)N[C@@H](CC(C)C)C(=O)O)[C@@H](C)O
B4: Kir2.1 biotinylated peptide (Biotin-…-COOH) (peptide)
peptide: Biotin-SGSGPRPLRRESEI-OH
SMILES: CC[C@H](C)[C@H](NC(=O)[C@H](CCC(=O)O)NC(=O)[C@H](CO)NC(=O)[C@H](CCC(=O)O)NC(=O)[C@H](CCCNC(=N)N)NC(=O)[C@H](CCCNC(=N)N)NC(=O)[C@H](CC(C)C)NC(=O)[C@@H]1CCCN1C(=O)[C@H](CCCNC(=N)N)NC(=O)[C@@H]1CCCN1C(=O)CNC(=O)[C@H](CO)NC(=O)CNC(=O)[C@H](CO)NC(=O)CCCC[C@@H]1SC[C@@H]2NC(=O)N[C@@H]21)C(=O)O

What was measured:
[1] = biological target: T1, GST-FBP21 (a protein having WW domain); experiment: Peptide capture on streptavidin-agarose beads in filter plate, tryptic digestion, MALDI MS detection of bound GST-FBP21; conditions: sample GST-FBP21; m/z 1138.7 or 1152.8; signal size of about 1000 or more indicates significant binding
Protocol: (§1) To make the peptide array, the wells of a multiwell (i.e., 96-well filtration plate from Millipore having a pore size of 1.2 μm) filtration plate were first filled with a known volume of a suspension containing Streptavidin-linked agarose beads (Sigma). The biotinylated peptides were added (each in a separate well) and allowed to incubate with the avidin beads for a defined time interval following which vacuum (5-6 in. Hg) was applied to remove excess liquid. The immobilized peptides were then ready to be incubated with the protein mixture (e.g., a brain extract). After incubation, the peptide-protein complexes were washed in parallel, and subsequently subjected to enzymatic digestion (following in-gel digestion protocol). After digestion directly in the membrane plate, the digests were transferred to a MALDI plate for MS analysis, after concentration using a C18 resin-containing Millipore C18 ZIPTIP™ pipette tips.
(§2) In detail, 40 μL of streptavidin-agarose conjugate (Sigma S1638) was added to each well of a 96 well membrane filter plate washed with 200 μL of 1 mM TRIS HCl pH 7.5 (TRIS buffer) buffer using vacuum filtration. The beads were not allowed to dry out. The capture agents (e.g., biotinylated peptides, biotinylated antibodies, tagged proteins) were diluted with 1 mM TRIS HCl pH 7.5 buffer and 20 μL of each capture agent solution (at concentration of 1-2 mg/mL) was added to wells containing the avidin-agarose conjugate. The beads and capture agent were incubated for 1.5 to 2 hrs at room temperature using an orbital shaker (the plate was sealed during the incubation to avoid evaporation of the buffer). After incubation, excess solution was removed and the beads were washed with 200 μL of 1 mM TRIS HCl pH 7.5. A sample containing a protein of interest in TRIS buffer was added to the beads and the sample and beads were incubated overnight at room temperature using an orbital shaker (again using a sealed plate). The liquid was removed and the beads were washed using 200 μL of TRIS buffer. The capture agent-protein complexes, which are attached to the avidin-sepharose beads, were digested with 25 μL of trypsin in TRIS (concentration 20 μg/mL) at 45C for 45 min (again in a sealed plate). The 96 well plate containing the beads was placed in a manifold, and a vacuum was applied to collect each digest in a separate well of another 96-well plate. Using C18 ZIPTIP™ pipette tips (Millipore Corporation or equivalent) the digested peptides were extracted by prewashing the ZIPTIP™ with water/acetonitrile 1:1 then water containing 0.1% trifluoro-acetic acid, and then using the ZIPTIP™ pipette tips to capture the peptides from each well by moving each sample into and out of the tip at least 10 times, and wash the ZIPTIP™ pipette tip with water containing 0.1%TFA (trifluoroacetic acid). The peptides were eluted from the ZIPTIP™ pipette tip with MALDI matrix solution (e.g., 3-4 μL of HCCA at 0.5-1 mg/mL in actetonitrile/water or methanol/acetonitrile/water containing acetic acid) and spotted directly onto a MALDI sample plate.
The headers for each of the columns of Table 2 indicate, for each experiment, the peptide used as a capture agent. The first column of Table 2 indicates, for each experiment, the sample used. GST-CAP1, GST-FBP21, GST-14-3-3 are described above. “Brain extract” is a soluble protein extract of homogenized mouse brain, and, “QC” indicates the negative controls performed. […]

[2] = system: GST-14-3-3; experiment: Peptide capture on streptavidin-agarose beads in filter plate, tryptic digestion, MALDI MS detection of bound GST-14-3-3; assay type: binding; conditions: sample GST-14-3-3; for signal size (number in brackets) of MALDI MS signal: m/z1245.7, signal size of about 1000 or more indicates significant binding; for signal size (number in brackets) of second MALDI MS signal: m/z1255.9, for SmB the signal is […]
Protocol: as §1, §2
(§3) The headers for each of the columns of Table 2 indicate, for each experiment, the peptide used as a capture agent. The first column of Table 2 indicates, for each experiment, the sample used. GST-CAP1, GST-FBP21, GST-14-3-3 are described above. “Brain extract” is a soluble protein extract of homogenized mouse brain, and, “QC” indicates the negative controls performed. M/z values indicate mass-to-charge ratios, and numbers in brackets indicate the size of the signal obtained, indicating the amount of the analytes present. In general, a signal size of about 1000 or more indicates significant binding.

[3] = system: GST-CAP1 (a protein having PDZ domain); experiment: Peptide capture on streptavidin-agarose beads in filter plate, tryptic digestion, MALDI MS detection of bound GST-CAP1; conditions: sample GST-CAP1; m/z as printed in cell above (1358.8 or 1152.6); signal size of about 1000 or more indicates significant binding
Protocol: as §1, §2, §3

[4] = system: mouse brain protein extract; experiment: Peptide capture of proteins from brain extract, tryptic digestion, MALDI MS; assay type: binding; conditions: for signal size of MALDI MS signal: sample brain extract (soluble protein extract of homogenized mouse brain), about 1000 or more indicates significant binding
Protocol: as §1
as §2, with “Using C18 ZIPTIP™ pipette tips (Millipore Corporation or equivalent) the digested peptides were extracted by prewashing the ZIPTIP™ with water/acetonitrile 1:1 then water containing 0.1% trifluoro-acetic acid, and then using the ZIPTIP™ pipette tips to capture the peptides from each well by moving each sample into and out of the tip at least 10 times, and wash the ZIPTIP™ pipette tip with water containing 0.1%TFA (trifluoroacetic acid). The peptides were eluted from the ZIPTIP™ pipette tip with MALDI matrix solution (e.g., 3-4 μL of HCCA at 0.5-1 mg/mL in actetonitrile/water or methanol/acetonitrile/water containing acetic acid) and spotted directly onto a MALDI sample plate.” left out

[5] = biological target: p60Src (Homo sapiens, UniProt P12931); experiment: SmB immobilized on avidin beads incubated with Src, digestion, MALDI MS (QC); assay type: binding
Text: The following were used as targets: GST-CAP1 (a protein having PDZ domain), GST-FBP21 (a protein having WW domain), GST-14-3-3, p60Src (a protooncogene tyrosine protein kinase known not to bind to any of the peptides listed above), and a mouse brain protein extract. Four of the 8 target peptides are proline-rich peptides, which are identified as SmB, CDC25, LD10 and WBP1, and are known to bind SH3 domains.
as §1, with “After digestion directly in the membrane plate, the digests were transferred to a MALDI plate for MS analysis, after concentration using a C18 resin-containing Millipore C18 ZIPTIP™ pipette tips.” left out
Significant binding was detected between several capture agents and several probes.

[6] = biological target: GST-CAP1 (a protein having PDZ domain); experiment: biotinylated peptide on streptavidin-agarose beads, pull-down, trypsin digest, MALDI-MS, ion m/z1358.8
[7] = biological target: T2, GST-FBP21 (a protein having WW domain); experiment: biotinylated peptide on streptavidin-agarose beads, pull-down, trypsin digest, MALDI-MS, ion m/z1138.7
[8] = biological target: GST-14-3-3; experiment: biotinylated peptide on streptavidin-agarose beads, pull-down, trypsin digest, MALDI-MS, ion m/z1245.7
[9] = biological target: T2, GST-FBP21 (a protein having WW domain); experiment: biotinylated peptide on streptavidin-agarose beads, pull-down, trypsin digest, MALDI-MS, ion m/z1152.8

Molecule | signal size (number in brackets) of MALDI MS signal [1] | signal size (number in brackets) of MALDI MS signal [2] | signal size (number in brackets) of MALDI MS signal [3] | signal size [7] | signal size [8] | further results
Biotin-SGSGEQPLT*PVTDL [CDC25] | (500) | (0) | (480) |  |  | signal size (number in brackets) of second MALDI MS signal [2]: (800)
Biotin-SGSGVLIKRRSTEL-OH [COXD] | (200) | (3600) | (1,100) |  |  | signal size of MALDI MS signal [4]: <50
Biotin-SGSGGTPPPPYTVG [WBP1] | (9,000) | 0 | 0 |  |  | signal size of MALDI MS signal [4]: <100
Biotin-PPGMRPPPPGMRRGPPPPGMRPPRP [SmB] |  | (0) | 0 |  |  | binding of WD11 repeat protein (WDR11) from brain extract ([4]; brain extract, spectra matched to known WD11 repeat protein (Table 3)): binds only the SmB peptide; binding of p60Src [5]: did not significantly bind; signal size (number in brackets) of second MALDI MS signal [2]: (3,000) is
Biotin-SGSGGAPPTPPPLPP [LD10] | (15,000) | (150) | (1,600) |  |  | 
Biotin-SGSGVLIKRRST*EL-COOH [COXG] | (30,000) | (500) | 0 |  |  | signal size of MALDI MS signal [4]: <100
Biotin-SGSGEQPL[pT]PVTDL [CDC25 biotinylated phosphopeptide (Biotin-…*PVTDL)] |  |  |  | 500 |  | signal size [6]: 480
B1 |  |  |  | 30000 | 500 | 
B2 |  |  |  |  | 8000 | signal size [9]: 8000
B3 |  |  |  | 200 | 3600 | signal size [6]: 1100
B4 |  |  |  |  | 400 | signal size [6]: 250; signal size [9]: 900
Biotin-SGSGGTPPPPYTVG [WBP1 biotinylated peptide (Biotin-…)] |  |  |  | 9000 |  | 

Source: patent US20050178959A1, “Methods and compositions for assessing a sample by maldi mass spectrometry” (priority 2004, published 2005)
